pIC50: −log10 of the molar value. Values belong to the molecule of their own block, whether it stands above or below them. Activity calls are given as the source filed them. The rule behind the calls is not given here.
Key:
Homo sapiens = species: Homo sapiens; assay: Inhibition of Fructose-1,6-bisphosphatase (unknown origin) preincubated for 10 min followed by addition of NADP+, PGI,G6PDH at 10 uM measured after 40 min by absorption based analysis relative to control; settings: time 50.0 min
[1] = Inhibition of Fructose-1,6-bisphosphatase (unknown origin) preincubated for 10 min followed by addition of NADP+, PGI,G6PDH and measured after 40 min by absorption based analysis; parameters: species or system Homo sapiens
Mus musculus [2] = assay: Anti-diabetic activity against 16 hrs fasted ICR mouse assessed as reduced blood glucose level at 150 mg/kg, po measured after 90 min by oral pyruvate tolerance test; assay type: functional, organism-based
Cytochrome P450 1A2 = biological target: T1, Cytochrome P450 1A2 (Homo sapiens, UniProt P05177); assay: Inhibition of CYP1A2 (unknown origin) incubated for 30 min in presence of NADPH by LC-MS/MS analysis; assay type: ADME
T1 sequence (P05177 whole entry): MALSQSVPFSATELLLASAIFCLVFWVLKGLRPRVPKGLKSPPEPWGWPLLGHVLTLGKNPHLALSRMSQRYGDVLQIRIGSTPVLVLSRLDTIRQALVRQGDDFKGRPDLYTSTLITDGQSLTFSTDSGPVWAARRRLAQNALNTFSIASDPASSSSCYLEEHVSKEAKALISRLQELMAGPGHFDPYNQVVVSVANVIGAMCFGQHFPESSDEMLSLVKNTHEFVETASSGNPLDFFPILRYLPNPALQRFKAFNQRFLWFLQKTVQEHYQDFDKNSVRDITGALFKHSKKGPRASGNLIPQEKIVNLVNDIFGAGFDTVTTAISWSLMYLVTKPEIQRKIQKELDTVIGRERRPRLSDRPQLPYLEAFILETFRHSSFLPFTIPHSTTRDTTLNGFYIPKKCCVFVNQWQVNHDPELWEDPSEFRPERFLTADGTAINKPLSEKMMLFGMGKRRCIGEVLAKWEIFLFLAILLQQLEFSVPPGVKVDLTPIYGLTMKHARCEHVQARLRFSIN

[3] = Inhibition of Fructose-1,6-bisphosphatase (unknown origin); parameters: species or system Homo sapiens
[4] = AUC (0 to t) in ICR mouse at 5 mg/kg, iv by HPLC-MS/MS analysis; assay type: ADME, organism-based; settings: in vivo
[5] = AUC (0 to infinity) in ICR mouse at 5 mg/kg, iv by HPLC-MS/MS analysis; assay type: ADME, organism-based; settings: in vivo
[6] = MRT (0 to t) in ICR mouse at 5 mg/kg, iv by HPLC-MS/MS analysis; assay type: ADME, organism-based; settings: in vivo
[7] = MRT (0 to infinity) in ICR mouse at 5 mg/kg, iv by HPLC-MS/MS analysis; assay type: ADME, organism-based; settings: in vivo
[8] = Half life in ICR mouse at 5 mg/kg, iv by HPLC-MS/MS analysis; assay type: ADME, organism-based; settings: in vivo
[9] = Tmax in ICR mouse at 5 mg/kg, iv by HPLC-MS/MS analysis; assay type: ADME, organism-based; settings: in vivo
[10] = Cmax in ICR mouse at 5 mg/kg, iv by HPLC-MS/MS analysis; assay type: ADME, organism-based; settings: in vivo
[11] = Apparent volume of distribution in ICR mouse at 5 mg/kg, iv by HPLC-MS/MS analysis; assay type: ADME, organism-based; settings: in vivo, read-out: Vz
[12] = Clearance in ICR mouse at 5 mg/kg, iv by HPLC-MS/MS analysis; assay type: ADME, organism-based; settings: in vivo
[13] = AUC (0 to t) in ICR mouse at 100 mg/kg, po by HPLC-MS/MS analysis; assay type: ADME, organism-based; settings: in vivo
[14] = AUC (0 to infinity) in ICR mouse at 100 mg/kg, po by HPLC-MS/MS analysis; assay type: ADME, organism-based; settings: in vivo
[15] = MRT (0 to t) in ICR mouse at 100 mg/kg, po by HPLC-MS/MS analysis; assay type: ADME, organism-based; settings: in vivo
[16] = MRT (0 to infinity) in ICR mouse at 100 mg/kg, po by HPLC-MS/MS analysis; assay type: ADME, organism-based; settings: in vivo
[17] = Half life in ICR mouse at 100 mg/kg, po by HPLC-MS/MS analysis; assay type: ADME, organism-based; settings: in vivo
[18] = Tmax in ICR mouse at 100 mg/kg, po by HPLC-MS/MS analysis; assay type: ADME, organism-based; settings: in vivo
[19] = Cmax in ICR mouse at 100 mg/kg, po by HPLC-MS/MS analysis; assay type: ADME, organism-based; settings: in vivo
[20] = Apparent volume of distribution in ICR mouse at 100 mg/kg, po by HPLC-MS/MS analysis; assay type: ADME, organism-based; settings: in vivo
[21] = Clearance in ICR mouse at 100 mg/kg, po by HPLC-MS/MS analysis; assay type: ADME, organism-based; settings: in vivo
[22] = Oral Bioavailability in ICR mouse at 100 mg/kg by HPLC-MS/MS analysis; assay type: ADME, organism-based; settings: in vivo
Cytochrome P450 2C9 = Cytochrome P450 2C9 (Homo sapiens, UniProt P11712); assay: Inhibition of CYP2C9 (unknown origin) incubated for 30 min in presence of NADPH by LC-MS/MS analysis; assay type: ADME
Cytochrome P450 2C19 = Cytochrome P450 2C19 (Homo sapiens, UniProt P33261); assay: Inhibition of CYP2C19 (unknown origin) incubated for 30 min in presence of NADPH by LC-MS/MS analysis; assay type: ADME
Cytochrome P450 2D6 = Cytochrome P450 2D6 (Homo sapiens, UniProt P10635); assay: Inhibition of CYP2D6 (unknown origin) incubated for 30 min in presence of NADPH by LC-MS/MS analysis; assay type: ADME
Cytochrome P450 3A4 = Cytochrome P450 3A4 (Homo sapiens, UniProt P08684); assay: Inhibition of CYP3A4 (unknown origin) incubated for 30 min in presence of NADPH by LC-MS/MS analysis; assay type: ADME
Cytochrome P450 3A5 = Cytochrome P450 3A5 (Homo sapiens, UniProt P20815); assay: Inhibition of CYP3A5 (unknown origin) incubated for 30 min in presence of NADPH by LC-MS/MS analysis; assay type: ADME
Mus musculus [23] = assay: Anti-diabetic activity against 16 hrs fasted ICR mouse assessed as reduced blood glucose level at 150 mg/kg, po measured after 30 to 90 min by oral pyruvate tolerance test; assay type: functional, organism-based; settings: time 30-90 min

Cytochrome P450 2C9, sequence (P11712 whole entry): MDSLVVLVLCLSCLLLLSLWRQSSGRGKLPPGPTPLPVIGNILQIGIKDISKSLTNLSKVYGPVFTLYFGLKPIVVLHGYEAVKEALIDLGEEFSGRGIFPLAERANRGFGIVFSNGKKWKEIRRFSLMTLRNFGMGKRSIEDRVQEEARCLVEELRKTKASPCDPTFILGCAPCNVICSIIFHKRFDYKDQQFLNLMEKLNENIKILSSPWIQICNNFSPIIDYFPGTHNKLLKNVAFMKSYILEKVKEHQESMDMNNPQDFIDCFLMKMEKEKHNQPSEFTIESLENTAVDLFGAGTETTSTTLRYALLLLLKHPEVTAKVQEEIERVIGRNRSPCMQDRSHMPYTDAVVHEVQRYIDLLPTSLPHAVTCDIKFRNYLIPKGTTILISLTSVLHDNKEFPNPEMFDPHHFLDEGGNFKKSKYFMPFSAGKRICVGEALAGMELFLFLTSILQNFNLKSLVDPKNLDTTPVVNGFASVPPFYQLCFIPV
Cytochrome P450 2C19, sequence (P33261 whole entry): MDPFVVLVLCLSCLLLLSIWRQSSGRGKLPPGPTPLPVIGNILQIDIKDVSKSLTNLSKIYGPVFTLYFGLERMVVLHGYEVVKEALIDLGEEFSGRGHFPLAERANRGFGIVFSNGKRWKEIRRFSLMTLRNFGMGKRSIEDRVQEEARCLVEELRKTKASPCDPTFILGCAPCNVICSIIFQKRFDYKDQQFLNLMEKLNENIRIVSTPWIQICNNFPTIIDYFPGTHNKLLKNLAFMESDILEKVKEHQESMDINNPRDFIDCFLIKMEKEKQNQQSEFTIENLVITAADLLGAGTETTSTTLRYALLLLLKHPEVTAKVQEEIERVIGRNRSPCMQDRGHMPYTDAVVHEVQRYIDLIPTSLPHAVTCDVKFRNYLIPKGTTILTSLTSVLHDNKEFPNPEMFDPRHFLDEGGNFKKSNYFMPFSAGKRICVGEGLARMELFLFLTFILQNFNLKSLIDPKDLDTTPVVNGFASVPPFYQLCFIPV
Cytochrome P450 3A5, sequence (P20815 whole entry): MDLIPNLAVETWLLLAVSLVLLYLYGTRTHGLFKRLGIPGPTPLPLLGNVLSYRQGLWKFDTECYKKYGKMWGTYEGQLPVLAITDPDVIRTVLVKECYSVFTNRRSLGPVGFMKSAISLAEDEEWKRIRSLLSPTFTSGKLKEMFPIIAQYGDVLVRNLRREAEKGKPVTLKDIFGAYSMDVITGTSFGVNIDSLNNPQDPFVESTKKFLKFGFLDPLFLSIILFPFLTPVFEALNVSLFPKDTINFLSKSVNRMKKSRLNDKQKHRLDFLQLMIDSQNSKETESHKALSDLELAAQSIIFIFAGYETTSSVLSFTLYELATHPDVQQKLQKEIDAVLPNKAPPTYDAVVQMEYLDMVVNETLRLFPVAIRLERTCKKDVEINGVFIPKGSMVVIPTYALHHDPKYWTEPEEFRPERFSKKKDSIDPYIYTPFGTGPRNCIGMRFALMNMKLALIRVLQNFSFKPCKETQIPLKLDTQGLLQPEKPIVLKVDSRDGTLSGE
Cytochrome P450 2D6, sequence (P10635 whole entry): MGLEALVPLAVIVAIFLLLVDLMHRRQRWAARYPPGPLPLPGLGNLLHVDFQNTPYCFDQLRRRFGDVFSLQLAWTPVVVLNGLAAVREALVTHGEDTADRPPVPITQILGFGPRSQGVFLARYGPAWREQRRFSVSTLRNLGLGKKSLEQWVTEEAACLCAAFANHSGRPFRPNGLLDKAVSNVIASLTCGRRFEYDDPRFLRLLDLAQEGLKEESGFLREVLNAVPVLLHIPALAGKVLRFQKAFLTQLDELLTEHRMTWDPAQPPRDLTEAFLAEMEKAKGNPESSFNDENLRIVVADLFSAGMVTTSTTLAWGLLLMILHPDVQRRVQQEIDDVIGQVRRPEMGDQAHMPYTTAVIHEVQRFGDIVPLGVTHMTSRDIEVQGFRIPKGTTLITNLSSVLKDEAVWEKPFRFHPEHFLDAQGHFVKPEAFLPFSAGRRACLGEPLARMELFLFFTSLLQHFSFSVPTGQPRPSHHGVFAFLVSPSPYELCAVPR
Cytochrome P450 3A4, sequence (P08684 whole entry): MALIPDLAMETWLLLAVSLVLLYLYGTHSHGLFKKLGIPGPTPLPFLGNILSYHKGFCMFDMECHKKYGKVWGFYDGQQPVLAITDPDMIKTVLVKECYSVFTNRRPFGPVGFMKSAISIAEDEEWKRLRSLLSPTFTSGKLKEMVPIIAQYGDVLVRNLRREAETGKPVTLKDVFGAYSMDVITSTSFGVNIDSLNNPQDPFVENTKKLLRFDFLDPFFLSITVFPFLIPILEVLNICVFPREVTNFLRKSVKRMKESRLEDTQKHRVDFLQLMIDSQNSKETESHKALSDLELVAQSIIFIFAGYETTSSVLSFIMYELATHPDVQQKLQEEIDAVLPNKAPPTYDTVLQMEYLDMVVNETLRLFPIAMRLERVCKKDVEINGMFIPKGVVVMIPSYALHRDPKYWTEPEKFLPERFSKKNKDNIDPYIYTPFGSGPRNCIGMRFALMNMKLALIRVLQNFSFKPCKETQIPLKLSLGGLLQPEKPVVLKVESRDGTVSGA

Structure (SMILES): Cn1c(-c2cccc(C(=O)NS(=O)(=O)c3ccc(Cl)cc3)c2)nc2ccccc21
inhibition (Homo sapiens): 4%

Structure (SMILES): O=C(NS(=O)(=O)c1ccc(F)cc1)c1cc(Cl)cc(-c2nc3ccccc3[nH]2)c1
pIC50 [1]: 5.67
inhibition (Homo sapiens): 96.3%
Activity (Mus musculus [2]): Active

Structure (SMILES): COc1ccc(S(=O)(=O)Nc2cccc(-c3nc4ccccc4n3C(C)C)c2)cc1
inhibition (Homo sapiens): 7.1%

Structure (SMILES): COc1ccc(S(=O)(=O)Nc2cccc(-c3nc4ccccc4n3C3CCCCC3)c2)cc1
inhibition (Homo sapiens): 47.4%

Structure (SMILES): COc1ccc(S(=O)(=O)NC(=O)c2cccc(-c3nc4ccccc4n3C)c2)cc1
inhibition (Homo sapiens): 5.7%

Structure (SMILES): CC(C)n1c(-c2cccc(C(=O)NS(=O)(=O)c3ccc(Cl)cc3)c2)nc2ccccc21
inhibition (Homo sapiens): 0%

Structure (SMILES): O=C(NS(=O)(=O)c1ccc(F)cc1)c1ccccc1N1CCN(Cc2nc3ccccc3n2C2CCCCC2)CC1
inhibition (Homo sapiens): 64.3%

Structure (SMILES): COc1ccc(S(=O)(=O)NC(=O)c2cccc(-c3nc4ccccc4n3C(C)C)c2)cc1
inhibition (Homo sapiens): 0%

Structure (SMILES): O=S(=O)(Nc1cccc(-c2nc3ccccc3n2C2CCCCC2)c1)c1ccc(Cl)cc1
inhibition (Homo sapiens): 24.8%

Structure (SMILES): Cn1c(-c2cccc(NS(=O)(=O)c3ccc(Cl)cc3)c2)nc2ccccc21
inhibition (Homo sapiens): 0%

Structure (SMILES): COc1ccc(S(=O)(=O)Nc2cccc(-c3nc4ccccc4n3C)c2)cc1
inhibition (Homo sapiens): 5.7%

Structure (SMILES): CC(C)n1c(-c2cccc(NS(=O)(=O)c3ccc(Cl)cc3)c2)nc2ccccc21
inhibition (Homo sapiens): 7.1%

Structure (SMILES): O=c1cc(-c2ccccc2)oc2ccc3ccccc3c12 [BETA-NAPHTHOFLAVONE]
pIC50 (Cytochrome P450 1A2): 6.83

Structure (SMILES): O=C(NS(=O)(=O)c1ccc(Cl)cc1)c1cc(Cl)cc(-c2nc3ccccc3[nH]2)c1
pIC50 [1]: 5.85
inhibition (Homo sapiens): 88.3%
Activity (Mus musculus [2]): Active

Structure (SMILES): O=S(=O)(Nc1cc(Cl)cc(-c2nc3ccccc3[nH]2)c1)c1ccc(Cl)cc1
inhibition (Homo sapiens): 5.4%

Structure (SMILES): O=C(NS(=O)(=O)c1ccc(Cl)cc1)c1cccc(-c2nc3ccccc3[nH]2)c1
inhibition (Homo sapiens): 0%

Structure (SMILES): COc1ccccc1CNC(=O)N1C(=O)c2ccccc2S1(=O)=O
pIC50 [3]: 5.77

Structure (SMILES): CC(C)=CCc1c(O)cc(O)c2c(=O)c(O)c(-c3ccc(O)c(O)c3)oc12
pIC50 [3]: 5.44

Structure (SMILES): COc1ccc(S(=O)(=O)Nc2cc(Cl)cc(-c3nc4ccccc4[nH]3)c2)cc1
inhibition (Homo sapiens): 18.2%

Structure (SMILES): COc1ccc(S(=O)(=O)NC(=O)c2cccc(-c3nc4ccccc4[nH]3)c2)cc1
inhibition (Homo sapiens): 20.8%

Structure (SMILES): COc1ccc(S(=O)(=O)NC(=O)c2cc(Cl)cc(-c3nc4ccccc4[nH]3)c2)cc1
pIC50 [1]: 5.68
inhibition (Homo sapiens): 81.8%
AUC(0-t) [4]: 15900 ng·h/mL
AUC(0-inf) [5]: 15900 ng·h/mL
MRT last [6]: 1.86 h
MRT inf [7]: 1.86 h
half-life [8]: 1.79 h
Tmax [9]: 1.98 min
Cmax [10]: 33500 ng/mL
Vd [11]: 0.813 L/kg
clearance [12]: 5.27 mL/min/kg
AUC(0-t) [13]: 19500 ng·h/mL
AUC(0-inf) [14]: 19500 ng·h/mL
MRT last [15]: 3 h
MRT inf [16]: 3 h
half-life [17]: 1.29 h
Tmax [18]: 0.25 h
Cmax [19]: 7160 ng/mL
Vz [20]: 9.799 L/kg
CL/F [21]: 87 mL/min/kg
bioavailability [22]: 6.15%
pIC50 (Cytochrome P450 1A2): 4.33
pIC50 (Cytochrome P450 2C9): 5.88
pIC50 (Cytochrome P450 2C19): < 4.30
pIC50 (Cytochrome P450 2D6): 4.43
pIC50 (Cytochrome P450 3A4): 4.70
pIC50 (Cytochrome P450 3A5): 4.70
Activity (Mus musculus [23]): Active

Structure (SMILES): S=C(SSC(=S)n1cccc1)n1cccc1
pIC50 [3]: 6.89

Structure (SMILES): O=S(=O)(Nc1cccc(-c2nc3ccccc3[nH]2)c1)c1ccc(Cl)cc1
inhibition (Homo sapiens): 0%

Structure (SMILES): COc1ccc(S(=O)(=O)Nc2cccc(-c3nc4ccccc4[nH]3)c2)cc1
inhibition (Homo sapiens): 0%

Structure (SMILES): Nc1ncnc2c1ncn2[C@@H]1O[C@H](COP(=O)(O)O)[C@@H](O)[C@H]1O [ADENOSINE PHOSPHATE]
pIC50 [1]: 5.48
inhibition (Homo sapiens): 81.3%

Now from value to molecule:

inhibition (Homo sapiens): 28.9%
Structure (SMILES): COc1ccc(S(=O)(=O)Nc2ccccc2-c2nc3ccccc3n2-c2ccc(Cl)cc2)cc1

inhibition (Homo sapiens): 7.1%
Structure (SMILES): COc1ccc(S(=O)(=O)Nc2cccc(-c3nc4ccccc4n3Cc3ccc(Cl)cc3)c2)cc1

inhibition (Homo sapiens): 16.2%
Structure (SMILES): O=S(=O)(Nc1cccc(-c2nc3ccccc3n2Cc2ccc(Cl)cc2)c1)c1ccc(Cl)cc1

pIC50 [1]: 5.09
inhibition (Homo sapiens): 63.5%
Structure (SMILES): O=S(=O)(Nc1cccc(-c2nc3ccccc3n2-c2ccc(Cl)cc2)c1)c1ccc(Cl)cc1

inhibition (Homo sapiens): 36.8%
Structure (SMILES): COc1ccc(S(=O)(=O)Nc2ccccc2-c2nc3ccccc3n2-c2ccc(NC(C)=O)cc2)cc1

inhibition (Homo sapiens): 5.6%
Structure (SMILES): COc1ccc(S(=O)(=O)Nc2ccccc2-c2nc3ccccc3n2Cc2ccc(Cl)cc2)cc1

inhibition (Homo sapiens): 10.2%
Structure (SMILES): O=S(=O)(Nc1ccccc1-c1nc2ccccc2n1Cc1ccc(Cl)cc1)c1ccc(Cl)cc1

inhibition (Homo sapiens): 39.8%
Structure (SMILES): O=S(=O)(Nc1ccccc1-c1nc2ccccc2n1C1CCCCC1)c1ccc(Cl)cc1

inhibition (Homo sapiens): 21.1%
Structure (SMILES): CC(=O)Nc1ccc(-n2c(-c3cccc(NS(=O)(=O)c4ccc(Cl)cc4)c3)nc3ccccc32)cc1

inhibition (Homo sapiens): 28.9%
Structure (SMILES): O=S(=O)(Nc1ccccc1-c1nc2ccccc2n1-c1ccc(Cl)cc1)c1ccc(Cl)cc1

inhibition (Homo sapiens): 25%
Structure (SMILES): CC(=O)Nc1ccc(-n2c(-c3ccccc3NS(=O)(=O)c3ccc(Cl)cc3)nc3ccccc32)cc1

inhibition (Homo sapiens): 36.8%
Structure (SMILES): COc1ccc(S(=O)(=O)Nc2cccc(-c3nc4ccccc4n3-c3ccc(NC(C)=O)cc3)c2)cc1

inhibition (Homo sapiens): 17.3%
Structure (SMILES): COc1ccc(S(=O)(=O)Nc2ccccc2-c2nc3ccccc3n2C2CCCCC2)cc1

pIC50 [1]: 5.27
inhibition (Homo sapiens): 52.6%
Structure (SMILES): COc1ccc(S(=O)(=O)Nc2cccc(-c3nc4ccccc4n3-c3ccc(Cl)cc3)c2)cc1
